# Key:
# [1] = tested on: NSCLC harboring atypical EGFR mutations; conditions: Phase II KCSG-LU15-09; treatment-naive patients harboring atypical EGFR mutations; cited from earlier work
# [2] = tested on: NSCLC tumors expressing EGFR G719S; assay: PDX tumor growth, EGFR G719S model; assay type: in vivo, NSG mice; conditions: mice harboring PDXs with mutations
# Procedure: Dot plot of mutant/WT IC50 values of Ba/F3 cells expressing PACC mutations and treated with indicated classes of EGFR TKIs. […] Bars are representative of average mutant/WT IC50 values±SEM for each class of EGFR TKI and all PACC cell lines. p-values were determined by ANOVA analysis with unequal SD as determined by Brown-Forsythe test to determined differences in SD. Holm-Sidak's multiple comparisons test was used to determine differences between groups. […] Tumors were measured three times per week and symbols are average of tumor volumes±SEM. Mice were randomized into six groups. Mice received drug 5 days per week, and mice were euthanized at day 28 to harvest tumors. […] Heat map with unsupervised hierarchical clustering of log (Mutant/WT) ratios from Ba/F3 cells expressing indicated mutations after 72 hours of indicated drug treatment. Squares are representative of the average of n=3 replicates. […] Bars are representative of average mutant/WT IC50 values±SEM for each class of EGFR TKI and indicated cell lines. p-values were determined by ANOVA analysis with unequal SD as determined by Brown-Forsythe test to determined differences in SD. […]
# Dot plot of percent change in tumor volume on day 28 of tumors described in FIG. 3C. […] Statistical differences were determined by ordinary one-way ANOVA with post-hoc Tukey's multiple comparisons test to determined differences between groups. […]
# [3] = tested on: classical EGFR mutant NSCLC; conditions: Phase III; treatment-naive patients; cited from earlier work
structure (smiles),measurement,setting,value
C=CC(=O)Nc1cc(Nc2nccc(-c3cn(C)c4ccccc34)n2)c(OC)cc1N(C)CCN(C)C [Osimertinib],ORR,[1],50%
same,mPFS,[1],8.2 months
same,tumor sensitivity in vivo,[2],resistant
same,median overall survival (mOS),[3],38.6 months
same,median progression free survival (mPFS),[3],18.9 months
same,objective response rate (ORR),[3],80%

# From US20240384350A1, “METHODS OF TREATING CANCER WITH KINASE INHIBITORS” (BOARD OF REGENTS, THE UNIVERSITY OF TEXAS SYSTEM, priority 2021, published 2024)
